# Experimental data from US8192962B2, “Processes for detecting toxic substances” (Daikin Industries, Ltd., priority 2001, dated 2012).
# Tested on: DNA repair protein genes
# Assay: DNA chip mRNA expression in yeast, DNA repair protein genes (Table 3)
# Format: cell-based, Saccharomyces cerevisiae S288C
# Settings: incubated two hours, concentrations as in the 1st table
# In short: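 Whole-genome yeast DNA chip hybridization (65° C., >12 h) of Cy-labeled cDNA from S288C cells exposed 2 h at 25° C. to a sub-lethal toxicant dose in YPD; value is intensity relative to chemical-free control.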
compound,measurement,setting,value
"CCCCCCCCCCCCOS(=O)(=O)[O-].[Na+] [(18), sodium lauryl sulfate]",The level of expressed mRNA in the presence of chemical substance/The level of expressed mRNA in the absence of chemical substance,yeast gene YAL015C,1.2
same,The level of expressed mRNA in the presence of chemical substance/The level of expressed mRNA in the absence of chemical substance,yeast gene YAR007C,1.0
same,The level of expressed mRNA in the presence of chemical substance/The level of expressed mRNA in the absence of chemical substance,yeast gene YBL019W,1.1
same,The level of expressed mRNA in the presence of chemical substance/The level of expressed mRNA in the absence of chemical substance,yeast gene YBR073W,0.8
same,The level of expressed mRNA in the presence of chemical substance/The level of expressed mRNA in the absence of chemical substance,yeast gene YBR272C,1.2
same,The level of expressed mRNA in the presence of chemical substance/The level of expressed mRNA in the absence of chemical substance,yeast gene YCR014C,0.9
same,The level of expressed mRNA in the presence of chemical substance/The level of expressed mRNA in the absence of chemical substance,yeast gene YDL017W,1.0
same,The level of expressed mRNA in the presence of chemical substance/The level of expressed mRNA in the absence of chemical substance,yeast gene YDL059C,0.9
same,The level of expressed mRNA in the presence of chemical substance/The level of expressed mRNA in the absence of chemical substance,yeast gene YDL200C,1.6
same,The level of expressed mRNA in the presence of chemical substance/The level of expressed mRNA in the absence of chemical substance,yeast gene YDR054C,1.4
same,The level of expressed mRNA in the presence of chemical substance/The level of expressed mRNA in the absence of chemical substance,yeast gene YDR369C,0.7
same,The level of expressed mRNA in the presence of chemical substance/The level of expressed mRNA in the absence of chemical substance,yeast gene YEL019C,0.9
same,The level of expressed mRNA in the presence of chemical substance/The level of expressed mRNA in the absence of chemical substance,yeast gene YEL037C,0.8
same,The level of expressed mRNA in the presence of chemical substance/The level of expressed mRNA in the absence of chemical substance,yeast gene YER162C,0.9
same,The level of expressed mRNA in the presence of chemical substance/The level of expressed mRNA in the absence of chemical substance,yeast gene YFL014W,8.8
same,The level of expressed mRNA in the presence of chemical substance/The level of expressed mRNA in the absence of chemical substance,yeast gene YGL058W,0.7
same,The level of expressed mRNA in the presence of chemical substance/The level of expressed mRNA in the absence of chemical substance,yeast gene YGL091C,1.8
same,The level of expressed mRNA in the presence of chemical substance/The level of expressed mRNA in the absence of chemical substance,yeast gene YGL127C,1.2
same,The level of expressed mRNA in the presence of chemical substance/The level of expressed mRNA in the absence of chemical substance,yeast gene YGL163C,0.8
same,The level of expressed mRNA in the presence of chemical substance/The level of expressed mRNA in the absence of chemical substance,yeast gene YGL249W,1.0
same,The level of expressed mRNA in the presence of chemical substance/The level of expressed mRNA in the absence of chemical substance,yeast gene YGR180C,1.9
same,The level of expressed mRNA in the presence of chemical substance/The level of expressed mRNA in the absence of chemical substance,yeast gene YGR231C,1.5
same,The level of expressed mRNA in the presence of chemical substance/The level of expressed mRNA in the absence of chemical substance,yeast gene YGR258C,0.9
same,The level of expressed mRNA in the presence of chemical substance/The level of expressed mRNA in the absence of chemical substance,yeast gene YHR164C,1.0
same,The level of expressed mRNA in the presence of chemical substance/The level of expressed mRNA in the absence of chemical substance,yeast gene YIL036W,1.3
same,The level of expressed mRNA in the presence of chemical substance/The level of expressed mRNA in the absence of chemical substance,yeast gene YIL072W,1.1
same,The level of expressed mRNA in the presence of chemical substance/The level of expressed mRNA in the absence of chemical substance,yeast gene YIL143C,0.9
same,The level of expressed mRNA in the presence of chemical substance/The level of expressed mRNA in the absence of chemical substance,yeast gene YIL153W,0.7
same,The level of expressed mRNA in the presence of chemical substance/The level of expressed mRNA in the absence of chemical substance,yeast gene YIR002C,1.2
same,The level of expressed mRNA in the presence of chemical substance/The level of expressed mRNA in the absence of chemical substance,yeast gene YJL026W,2.1
same,The level of expressed mRNA in the presence of chemical substance/The level of expressed mRNA in the absence of chemical substance,yeast gene YJR046W,0.7
same,The level of expressed mRNA in the presence of chemical substance/The level of expressed mRNA in the absence of chemical substance,yeast gene YJR052W,1.3
same,The level of expressed mRNA in the presence of chemical substance/The level of expressed mRNA in the absence of chemical substance,yeast gene YKL145W,1.5
same,The level of expressed mRNA in the presence of chemical substance/The level of expressed mRNA in the absence of chemical substance,yeast gene YLR103C,1.4
same,The level of expressed mRNA in the presence of chemical substance/The level of expressed mRNA in the absence of chemical substance,yeast gene YLR233C,1.2
same,The level of expressed mRNA in the presence of chemical substance/The level of expressed mRNA in the absence of chemical substance,yeast gene YLR288C,1.3
same,The level of expressed mRNA in the presence of chemical substance/The level of expressed mRNA in the absence of chemical substance,yeast gene YML032C,1.0
same,The level of expressed mRNA in the presence of chemical substance/The level of expressed mRNA in the absence of chemical substance,yeast gene YML058W,1.5
same,The level of expressed mRNA in the presence of chemical substance/The level of expressed mRNA in the absence of chemical substance,yeast gene YMR035W,2.4
same,The level of expressed mRNA in the presence of chemical substance/The level of expressed mRNA in the absence of chemical substance,yeast gene YMR072W,1.9
same,The level of expressed mRNA in the presence of chemical substance/The level of expressed mRNA in the absence of chemical substance,yeast gene YMR096W,1.0
same,The level of expressed mRNA in the presence of chemical substance/The level of expressed mRNA in the absence of chemical substance,yeast gene YMR284W,1.3
same,The level of expressed mRNA in the presence of chemical substance/The level of expressed mRNA in the absence of chemical substance,yeast gene YNL213C,1.2
same,The level of expressed mRNA in the presence of chemical substance/The level of expressed mRNA in the absence of chemical substance,yeast gene YNL250W,1.0
same,The level of expressed mRNA in the presence of chemical substance/The level of expressed mRNA in the absence of chemical substance,yeast gene YNL261W,1.0
same,The level of expressed mRNA in the presence of chemical substance/The level of expressed mRNA in the absence of chemical substance,yeast gene YNL312W,1.1
same,The level of expressed mRNA in the presence of chemical substance/The level of expressed mRNA in the absence of chemical substance,yeast gene YOL043C,1.0
same,The level of expressed mRNA in the presence of chemical substance/The level of expressed mRNA in the absence of chemical substance,yeast gene YOR005C,1.0
same,The level of expressed mRNA in the presence of chemical substance/The level of expressed mRNA in the absence of chemical substance,yeast gene YOR386W,1.7
same,The level of expressed mRNA in the presence of chemical substance/The level of expressed mRNA in the absence of chemical substance,yeast gene YPL022W,0.9
same,The level of expressed mRNA in the presence of chemical substance/The level of expressed mRNA in the absence of chemical substance,yeast gene YPL164C,1.0
same,The level of expressed mRNA in the presence of chemical substance/The level of expressed mRNA in the absence of chemical substance,yeast gene YPL194W,0.8
same,The level of expressed mRNA in the presence of chemical substance/The level of expressed mRNA in the absence of chemical substance,yeast gene YPR025C,1.5
